Measured values reported in patent publication US5326776A, “Angiotensin II receptor antagonists” (Abbott Laboratories, priority 1993, dated 1994).

System: angiotensin II
Assay: not given
Conditions: background statement; cited from earlier work

| Compound | antagonist of the actions of angiotensin II |
| --- | --- |
| CNCC(=O)N[C@@H](CCCN=C(N)N)C(=O)N[C@H](C(=O)N[C@@H](Cc1ccc(O)cc1)C(=O)N[C@H](C(=O)N[C@@H](Cc1cnc[nH]1)C(=O)N1CCC[C@H]1C(=O)N[C@@H](C)C(=O)O)C(C)C)C(C)C [saralasin, [Sar^1,Ala^8] angiotensin II] | potent antagonist of the actions of angiotensin II |

System: not given
Assay: not given
Conditions: peptide; cited from earlier work

| Compound | oral bioavailability |
| --- | --- |
| CNCC(=O)N[C@@H](CCCN=C(N)N)C(=O)N[C@H](C(=O)N[C@@H](Cc1ccc(O)cc1)C(=O)N[C@H](C(=O)N[C@@H](Cc1cnc[nH]1)C(=O)N1CCC[C@H]1C(=O)N[C@@H](C)C(=O)O)C(C)C)C(C)C [saralasin, [Sar^1,Ala^8] angiotensin II] | very poor oral bioavailability |

System: angiotensin receptor
Assay: not given
Conditions: in vivo; cited from earlier work

| Compound | blood pressure after intravenous administration |
| --- | --- |
| CNCC(=O)N[C@@H](CCCN=C(N)N)C(=O)N[C@H](C(=O)N[C@@H](Cc1ccc(O)cc1)C(=O)N[C@H](C(=O)N[C@@H](Cc1cnc[nH]1)C(=O)N1CCC[C@H]1C(=O)N[C@@H](C)C(=O)O)C(C)C)C(C)C [saralasin, [Sar^1,Ala^8] angiotensin II] | initial increase in blood pressure after intravenous administration |

Target: T1, angiotensin II receptor (Oryctolagus cuniculus, UniProt P34976)
T1 construct: Main abdominal aortas were removed and placed in Krebs-Henseleit buffer at room temperature; from tissue; host or cells: main abdominal aorta rings (3 mm) of female New Zealand White rabbits
T1 sequence (P34976 1-359): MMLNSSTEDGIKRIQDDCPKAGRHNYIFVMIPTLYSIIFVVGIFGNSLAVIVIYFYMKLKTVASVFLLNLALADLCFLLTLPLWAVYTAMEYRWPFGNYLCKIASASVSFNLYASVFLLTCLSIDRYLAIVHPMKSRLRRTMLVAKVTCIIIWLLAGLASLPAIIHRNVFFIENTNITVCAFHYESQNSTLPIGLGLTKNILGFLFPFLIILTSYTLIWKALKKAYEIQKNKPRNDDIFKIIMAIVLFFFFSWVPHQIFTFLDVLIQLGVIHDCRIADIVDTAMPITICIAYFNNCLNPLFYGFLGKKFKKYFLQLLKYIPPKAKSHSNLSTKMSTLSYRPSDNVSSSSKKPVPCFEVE
Assay: Antagonism of contraction of rabbit aorta (angiotensin II functional assay, isolated rabbit aorta, pA2)
Set-up: species or system rabbit (female New Zealand White)
Conditions: angiotensin II as agonist, 30 minutes incubation with antagonist, Schild analysis, negative logarithm of [A]2
Source text: ANGIOTENSIN II FUNCTIONAL ASSAY: Antagonism of Contraction of Rabbit Aorta
The protocol reported by A. T Chiu and P. Timmermans (P. C. Wong, et al. Hypertension, 13, 489-497 (1989)) was followed with a few modifications. Female New Zealand White rabbits weighing 2-5 kg were sedated with carbon dioxide and then sacrificed. Main abdominal aortas were removed and placed in Krebs-Henseleit buffer at room temperature. […]
______________________________________
Buffer Component mM Concentration
potassium dihydrogen phosphate
sodium bicarbonate 20.00
EDTA* disodium calcium salt
*EDTA = ethylenediamine tetraacetic acid
The buffer contained no cocaine, propanolol or steroid.
The pH of the buffer was 7.40 at 37° C. when saturated with 5%
carbon dioxide/95% oxygen.
The tissues were cleaned of extraneous connective tissue, cut into 3 mm rings, and suspended within a 10 mL tissue bath. All dilutions of peptide preparations were made with 0.3% aqueous BSA. The tissues were primed with 55 mM potassium chloride. Tissues were pre-loaded with 1 g of tension. Tension was recorded on a model 7 Grass polygraph using FT03 transducers. At the end of the equilibrium period, a control cumulative concentration-contractile response curve for angiotensin II (A II: 1×10^-10 -10^-8 M) was obtained. The tissue was washed several times until the baseline was reached. Forty five minutes later, test compound (antagonist) was added and the tissue was incubated for 30 minutes. The concentration-response curve for A II was then repeated in the presence of the test compound. One dose of antagonist was tested per tissue only. For single dose shift experiments a dose of 1 mM of test compound was used, for a full pA2 experiment multiple doses were used depending upon the potency of the antagonist.
All responses to the control agonist were calculated as a percentage of the maximum response. These points in duplicate were plotted and analyzed according to standard Schild analysis (H. O. Schild, British J Pharmacology and Chemotherapy, 2, 189-206 (1947). The pA2 values calculated for the compounds of the invention are shown in Table 6. The pA2 value is the negative logarithm of the [A]2 value. [A]2 is the concentration of antagonist which necessitates doubling the agonist concentration in order to achieve the agonist effect which was measured in the absence of antagonist.
The pA2 value, therefore, is a measure of the effectiveness of the compound as an antagonist.

| Compound | Kb |
| --- | --- |
| CCCCN(Cc1ccc(-c2ccccc2-c2nn[nH]n2)cc1)c1scnc1C(=O)O [Example 3, 5-{N-Butyl-N-[(2'-[1H-tetrazol-5-yl]biphenyl-4-yl)methyl]amino}thiazole-4-carboxylic acid] | 6.31 nM |
| CCCc1nc(N(CCC)Cc2ccc(-c3ccccc3-c3nn[nH]n3)cc2)sc1C(=O)O [Example 31, 2-{N-Propyl-N-[(2'-[1H-tetrazol-5-yl]biphenyl-4-yl)methyl]amino}thiazole-4-propyl-5-carboxylic acid] | 37.2 nM |
| CCCCN(Cc1ccc(-c2ccccc2-c2nnn[nH]2)cc1)c1nncs1 [Example 12, 2-{N-Butyl-N-[(2'-[1H-tetrazol-5-yl]biphenyl-4-yl)methyl]amino}-1,3,4-thiadiazole] | 20 nM |
| CCCN(Cc1ccc(-c2ccccc2-c2nn[nH]n2)cc1)c1nn(C)cc1C(=O)O [Example 14, 1-Methyl-3-{N-propyl-N-[(2'-[1H-tetrazol-5-yl]biphenyl-4-yl)methyl]amino}pyrazole-4-carboxylic acid] | 11.5 nM |
| CCCCN(Cc1ccc(-c2ccccc2-c2nn[nH]n2)cc1)c1ncc(C(=O)O)s1 [Example 27, 2-{N-Butyl-N-[(2'-[1H-tetrazol-5-yl]biphenyl-4-yl)methyl]amino}thiazole-5-carboxylic acid] | 1.66 nM |
| CCCCN(Cc1ccc(-c2ccccc2-c2nn[nH]n2)cc1)c1cn(CC)cn1 [Example 6, 4-{N-Butyl-N-[(2'-[1H-tetrazol-5-yl]biphenyl-4-yl)methyl]amino}-1-(N-ethyl)imidazole] | 7.59 nM |
| CCCN(Cc1ccc(-c2ccccc2-c2nn[nH]n2)cc1)c1nc(C)c(C(=O)O)s1 [Example 29, 4-Methyl-2-{N-propyl-N-[(2'-[1H-tetrazol-5-yl]biphenyl-4-yl)methyl]amino}thiazole-5-carboxylic acid] | 2.34 nM |
| CCCCN(Cc1ccc(-c2ccccc2-c2nn[nH]n2)cc1)c1ncn(CC)c1C(=O)OC(C)(C)C [Example 5, tert-Butyl 4-{N-butyl-N-[(2'-[1H-tetrazol-5-yl]biphenyl-4-yl)methyl]amino}-1-(N-ethyl)imidazole-5-carboxylate] | 87.1 nM |
| CCCCN(Cc1ccc(-c2ccccc2-c2nnn[nH]2)cc1)c1nnc(C(=O)OCC)s1 [Example 11, Ethyl 2-{N-Butyl-N-[(2'-[1H-tetrazol-5-yl]biphenyl-4-yl)methyl]amino}-1,3,4-thiadiazole-5-carboxylate] | 2.95 nM |
| CCCCN(Cc1ccc(-c2ccccc2-c2nnn[nH]2)cc1)c1nc(SC)n(C)c1C(=O)OCC [Example 1, Ethyl 4-{N-butyl-N-[(2'-[1H-tetrazol-5-yl]biphenyl-4-yl)methyl]amino}-1-methyl-2-(methylthio)imidazole-5-carboxylate] | 105 nM |
| CCCN(Cc1ccc(-c2ccccc2-c2nn[nH]n2)cc1)c1nc(C(F)(F)F)c(C(=O)O)s1 [Example 30, 2-{N-Propyl-N-[(2'-[1H-tetrazol-5-yl]biphenyl-4-yl)methyl]amino}thiazole-4-trifluoromethyl-5-carboxylic acid] | 27.5 nM |
| CCCCN(Cc1ccc(-c2ccccc2-c2nn[nH]n2)cc1)c1snnc1C(=O)O [Example 10, 5-[N-Butyl-N-[[2'-(1H-tetrazol-5-yl)biphenyl-4-yl]methyl]amino]-1,2,3-thiadiazole-4-carboxylic acid] | 4.37 nM |
| CCCCN(Cc1ccc(-c2ccccc2-c2nnn[nH]2)cc1)c1snnc1C(=O)OCC [Example 9, Ethyl 5-{N-butyl-N-[(2'-[1H-tetrazol-5-yl]biphenyl-4-yl)methyl]amino}-1,2,3-thiadiazole-4-carboxylate] | 16.6 nM |
| CCCN(Cc1ccc(-c2ccccc2-c2nn[nH]n2)cc1)c1ncc(C(=O)O)s1 [Example 28, 2-{N-Propyl-N-[(2'-[1H-tetrazol-5-yl]biphenyl-4-yl)methyl]amino}thiazole-5-carboxylic acid] | 13.5 nM |
